The source of these data is US9128097B2, “Method and kit for assessing viable cells” (ChemoMetec A/S, priority 2008, dated 2015).

Common to all, as to type: cell-based
One assay has as its system Jurkat cells. Nature of the assay: JC-1 mitochondrial potential detection apoptosis assay. Conditions: nocodazole treated Jurkat cells. The source says:
FIG. 22 The effect of the apoptotic drug nocodazole on the fluorescence intensity of stained Jurkat cells. 22A+22B) Fluorescence intensity of DACM stained untreated (22A) or nocodazole treated (22B) Jurkat cells. […] 22C+22D) Red vs. green fluorescence of JC-1 stained untreated (22C) and nocodazole treated (22D) Jurkat cells. The JC-1 stain is used for detecting apoptosis. JC-1 form red fluorescing aggregates in the mitochondria of healthy, non-apoptotic cells. In apoptotic cells JC-1 appears in its green monomeric, reduced form. […] This is in accordance with the results obtained using DACM to measure the thiol level; treatment with nocodazole causes a decrease in the fluorescence intensity of a subpopulation of cells.

Assay [1] has as its system Jurkat (A3) cells. Nature of the assay: DACM / annexin V AF594 / SYTOX green staining of nocodazole treated Jurkat cells. How it is done:
Materials and Methods. Jurkat (A3) cells were grown in T flasks at 37° C. in a humidified air atmosphere with 5% CO2 in RPMI (Invitrogen, #61870) supplemented with 10% heat-inactivated fetal bovine serum (Invitrogen, #10108-165). In order of investigating the effect of an apoptosis-inducing drug on DACM staining, Jurkat cells were treated with nocodazole (0.5 μM) for 16 hours. Nocodazole treated and untreated control cells were harvested washed and stained with annexin V Alexa Fluor 594 (Invitrogen, #A13203) according to manufacturer's instructions. Then cells were stained with DACM (20 μg/mL) (N-(7-dimethylamino-4-methyl-3-coumarinyl)-maleimide, WAKO Pure Chemical Industries, CAS no. 55145-14-7) and the nonviable stain SYTOX green (0.3 μM) (Invitrogen, #S7020). Immediately after staining with DACM cells were loaded into a chamber slide. The cells were investigated using an Olympus IX50 fluorescence microscope, and images (40× magnification) of the Annexin V Alexa Fluor 594, DACM and SYTOX green stained cells were captured using a Lumenera CCD camera combined with the following filter cubes (Olympus); U-MWG2 (green long pass: 510-550 nm), U-MNUA2 (UV band pass, 330-385 nm) and U-MNIB3 (blue band pass: 470-495 nm). Cells were also investigated using an in-house developed fluorescence microscope system with 2× magnification.

In another assay the test system is Jurkat (JM) cells. In words: Staining of proliferating Jurkat cells with labelling agent and propidium iodide, fluorescence microscopy. Conditions: 10 μL agent (100 μg pr. mL DMSO) added to 90 μL cells, only exception PI positive cells. How it is done: (§1) Materials and Methods. Jurkat (JM) cells were grown at 37° C. in a humidified air atmosphere with 5% CO2 in RPMI (Invitrogen, #61870) supplemented with 10% heat-inactivated fetal bovine serum (Invitrogen, #10108-165). 90 μL proliferating Jurkat cells (cell density 1.2×10^6, 99% viable determined using the NC-100 NucleoCounter system following the manufacturer's (ChemoMetec A/S) protocol) were added 10 μL NAM (N-(9-acridinyl)maleimide, Sigma, #01665, CAS no. 49759-20-8) dissolved in DMSO (100 μg NAM pr. mL DMSO) and mixed by pipetting. Cells were loaded into a NucleoCassette, containing the DNA stain propidium iodide (PI). The cells were investigated using an Olympus IX50 fluorescence microscope, and images were captured using a Lumenera CCD camera and in-house developed software. PI and NAM fluorescence were detected using, respectively, U-MWG2 (green long pass: 510-550 nm) and U-MNUA2 (UV band pass, 330-385 nm) filter cubes (Olympus).
as §1, with “1.0×10^6,” for “1.2×10^6,”, “(ChemoMetec)” for “(ChemoMetec A/S)”, “CPM (7-diethylamino-3-[4′-maleimidylphenyl]-4-methylcoumarin, Chemodex Ltd.,” for “NAM (N-(9-acridinyl)maleimide, Sigma, #01665,”, “76877-33-3)” for “49759-20-8)”, “CPM” for “NAM”
as §1, with “1.1×10^6, 98%” for “1.2×10^6, 99%”, “(ChemoMetec)” for “(ChemoMetec A/S)”, “PM (N-(1-Pyrenyl)maleimide, Sigma P7908” for “NAM (N-(9-acridinyl)maleimide, Sigma, #01665,”, “42189-56-0)” for “49759-20-8)”, “PM” for “NAM”, “Cells were loaded into a NucleoCassette, containing the DNA stain propidium iodide (PI).” left out
Materials and Methods. […] 90 μL proliferating Jurkat cells (cell density 1.1×10^6, 98% viable determined using the NC-100 NucleoCounter system following the manufacturer's (ChemoMetec) protocol) were added 10 μL CPI (7-diethylamino-3-((4′-(iodoacetyl)amino)phenyl)-4-methylcoumarin, Sigma 78264 CAS no. 76877-34-4) dissolved in DMSO (100 μg CPI pr. mL DMSO) and mixed by pipetting. […] The cells were investigated using an Olympus IX50 fluorescence microscope, and images were captured using a Lumenera CCD camera and in-house developed software. PI and CPI fluorescence were detected using, respectively, U-MWG2 (green long pass: 510-550 nm) and U-MNUA2 (UV band pass, 330-385 nm) filter cubes (Olympus). […]

Assay [2] has as its system Jurkat (A3) cells. In words: DACM staining of exponentially growing versus starved Jurkat cells. The settings on record: viable cells (PI positive gated out); 2 days versus 10 days incubation. How it is done: Materials and Methods. Jurkat (A3) cells were grown in T flasks at 37° C. in a humidified air atmosphere with 5% CO2 in RPMI (Invitrogen, #61870) supplemented with 10% heat-inactivated fetal bovine serum (Invitrogen, #10108-165). To investigate the effect of cell starvation on DACM staining, exponentially proliferating cells from a newly split culture (2 days incubation) were investigated along with cells from a stationary culture (10 days incubation). 1.8 mL proliferating newly split Jurkat cells (cell density 3×10^5, 98% viable) were spun down and resuspended in 95 μL RPMI media and added 5 μL of a mixture of DACM (N-(7-dimethylamino-4-methyl-3-coumarinyl)-maleimide, WAKO Pure Chemical Industries, CAS no. 55145-14-7, 400 μg DACM pr. mL), acridine orange (1.2 μg/mL) and propidium iodide (500 μg/mL) and mixed by pipetting. Immediately after staining cells were loaded into a chamber slide. Images were captured using an in-house developed fluorescence microscope system with a Lumenera CCD camera (2× magnification) and were analysed using in-house developed software.

The next assay deals with S. cerevisiae. Nature of the assay: DACM/PI staining of yeast, fluorescence microscopy. The settings on record: 8 μg/ml DACM, no incubation. The method, then:
(§2) Materials and Methods. S. pombe strain Eg328, h^90 smt-0 ura4-D18, (ATCC 90720; Styrkarsdottir U et al. Curr. Genet. 23: 184-186, 1993) was grown in a rotary shaker at 29° C. to a density of 1×10^7 cells/ml in EMM minimal medium (Moreno et al., Methods Enzym. 194: 795-823, 1991) supplemented with 10 mM of L-uridine (Sigma, U3750). S. cerevisiae wild strain was cultivated in YPD medium (Qbiogene, #4001-032) at 29° C. to a density of 5×10^7 cells/ml. S. pombe and S. cerevisiae cells were directly stained with 8 μg/ml DACM (N-(7-dimethylamino-4-methyl-3-coumarinyl)-maleimide, WAKO Pure Chemical Industries, CAS no. 55145-14-7 dissolved in DMSO) and 10 μg/ml propidium iodide (Applichem, #A2261.9010) prior to mounting on a microscope slide. Note: after addition of DACM and PI the cells were immediately analysed for fluorescence (no incubation). Olympus IX50 and NucleoCounter® NC3000™ was used for microscopy, and images were captured using a Lumenera CCD camera and in-house developed software. Propidium iodide and DCAM fluorescence were detected using the U-MWG2 and U-MNUA2 filter cubes of the Olympus microscope and filterset 5 and 1 of the NucleoCounter® NC-3000™.

The next assay concerns S. pombe. In words: DACM/PI staining of yeast, fluorescence microscopy. The settings on record: 8 μg/ml DACM, no incubation. The method, then:
as §2

Regarding `COC(=O)Nc1nc2ccc(C(=O)c3cccs3)cc2[nH]1` [nocodazole], the “induction of apoptosis (mitochondrial depolarisation, JC-1 red/green fluorescence)” value in the assay with Jurkat cells is recorded as “induces apoptosis (measured as depolarisation) in a cell subpopulation”. In the assay with Jurkat (A3) cells [1] (nocodazole 0.5 μM for 16 hours), the “overall DACM fluorescence intensity (thiol level) of treated cells versus untreated” value was “lower than the overall fluorescence intensity of untreated Jurkat cells”.
`Cc1c(N2C(=O)C=CC2=O)c(=O)oc2cc(N(C)C)ccc12` [DACM, N-(7-dimethylamino-4-methyl-3-coumarinyl)-maleimide]: the “staining of cells (UV filter) versus PI positive cells” value in the assay on Jurkat (JM) cells is “nearly all cells were stained by DACM”. Besides, the “DACM fluorescence intensity of viable, non-apoptotic cells” value in the assay on Jurkat (A3) cells [1] (DACM 20 μg/mL) was “highest fluorescence intensity”. For the same molecule, the “DACM fluorescence intensity of nonviable cells” value with Jurkat (A3) cells [1] (SYTOX green positive cells, DACM 20 μg/mL) is listed as “low fluorescence intensity”. In addition, the “DACM fluorescence intensity of apoptotic cells” value in the assay with Jurkat (A3) cells [1] (annexin V positive cells, DACM 20 μg/mL) is listed as “low fluorescence intensity”. In addition, the “DACM fluorescence intensity, healthy versus starved cells” value in the assay with Jurkat (A3) cells [2] is “higher for healthy (exponential growing) Jurkat cells than the starved Jurkat cells”. Moreover, the “staining of non-viable PI positive cells” value in the assay on S. cerevisiae and in the assay on S. pombe was “stain very weakly with DACM” in each case. In addition, the “staining of viable PI negative cells” value in the assay on S. cerevisiae and in the assay on S. pombe was “stain brightly with DACM” each time.
